# Results from PubChem BioAssay (NCI).
#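 Cells were grown in 96-well plates and exposed to each compound for 48 hours at five concentrations; endpoints were interpolated linearly between bracketing concentrations, or set to the highest concentration if not reached. The concentration for full growth arrest is given as TGI.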
# Tests used:
# Experiment in all cases: growth of human tumour cells (NCI), 48 h
# 786-0 renal = tested on: 786-0 renal
# A498 renal = tested on: A498 renal
# A549 NSCLC = tested on: A549 NSCLC
# ACHN renal = tested on: ACHN renal
# BT-549 breast = tested on: BT-549 breast
# CAKI-1 renal = tested on: CAKI-1 renal
# CCRF-CEM leukemia = tested on: CCRF-CEM leukemia
# COLO 205 colon = tested on: COLO 205 colon
# DU-145 prostate = tested on: DU-145 prostate
# EKVX NSCLC = tested on: EKVX NSCLC
# HCC-2998 colon = tested on: HCC-2998 colon
# HCT-116 colon = tested on: HCT-116 colon
# HCT-15 colon = tested on: HCT-15 colon
# HOP-62 NSCLC = tested on: HOP-62 NSCLC
# HS 578T breast = tested on: HS 578T breast
# HT29 colon = tested on: HT29 colon
# K-562 leukemia = tested on: K-562 leukemia
# KM12 colon = tested on: KM12 colon
# M14 melanoma = tested on: M14 melanoma
# MALME-3M melanoma = tested on: MALME-3M melanoma
# MCF7 breast = tested on: MCF7 breast
# MDA-MB-231 breast = tested on: MDA-MB-231 breast
# MDA-MB-435 = tested on: MDA-MB-435
# MDA-N = tested on: MDA-N
# MOLT-4 leukemia = tested on: MOLT-4 leukemia
# NCI-H226 lung = tested on: NCI-H226 lung
# NCI-H23 lung = tested on: NCI-H23 lung
# NCI-H460 lung = tested on: NCI-H460 lung
# NCI/ADR-RES ovarian = tested on: NCI/ADR-RES ovarian
# OVCAR-3 ovarian = tested on: OVCAR-3 ovarian
# OVCAR-4 ovarian = tested on: OVCAR-4 ovarian
# OVCAR-5 ovarian = tested on: OVCAR-5 ovarian
# OVCAR-8 ovarian = tested on: OVCAR-8 ovarian
# PC-3 prostate = tested on: PC-3 prostate
# RPMI-8226 leukemia = tested on: RPMI-8226 leukemia
# RXF 393 renal = tested on: RXF 393 renal
# SF-268 CNS = tested on: SF-268 CNS
# SF-295 CNS = tested on: SF-295 CNS
# SF-539 CNS = tested on: SF-539 CNS
# SK-MEL-2 melanoma = tested on: SK-MEL-2 melanoma
# SK-MEL-28 melanoma = tested on: SK-MEL-28 melanoma
# SK-OV-3 ovarian = tested on: SK-OV-3 ovarian
# SN12C renal = tested on: SN12C renal
# SNB-19 CNS = tested on: SNB-19 CNS
# SNB-75 CNS = tested on: SNB-75 CNS
# SW-620 colon = tested on: SW-620 colon
# T-47D breast = tested on: T-47D breast
# U251 CNS = tested on: U251 CNS
# UACC-257 melanoma = tested on: UACC-257 melanoma
# UACC-62 melanoma = tested on: UACC-62 melanoma
# UO-31 renal = tested on: UO-31 renal
# HL-60(TB) leukemia = tested on: HL-60(TB) leukemia
# HOP-92 NSCLC = tested on: HOP-92 NSCLC
# IGROV1 ovarian = tested on: IGROV1 ovarian
# LOX IMVI melanoma = tested on: LOX IMVI melanoma
# NCI-H522 lung = tested on: NCI-H522 lung
# SK-MEL-5 melanoma = tested on: SK-MEL-5 melanoma
# SR leukemia = tested on: SR leukemia
# TK-10 renal = tested on: TK-10 renal
smiles,measurement,setting,value
C(#C[C@@]12CCC[C@@H]1N(Cc1ccccc1)CO2)c1ccc2c(c1)OCO2,TGI,786-0 renal,> 100 µM
same,TGI,A498 renal,> 100 µM
same,TGI,A549 NSCLC,> 100 µM
same,TGI,ACHN renal,> 100 µM
same,TGI,BT-549 breast,> 100 µM
same,TGI,CAKI-1 renal,> 100 µM
same,TGI,CCRF-CEM leukemia,> 100 µM
same,TGI,COLO 205 colon,> 100 µM
same,TGI,DU-145 prostate,> 100 µM
same,TGI,EKVX NSCLC,> 100 µM
same,TGI,HCC-2998 colon,> 100 µM
same,TGI,HCT-116 colon,> 100 µM
same,TGI,HCT-15 colon,> 100 µM
same,TGI,HOP-62 NSCLC,> 100 µM
same,TGI,HS 578T breast,> 100 µM
same,TGI,HT29 colon,> 100 µM
same,TGI,K-562 leukemia,> 100 µM
same,TGI,KM12 colon,> 100 µM
same,TGI,M14 melanoma,> 100 µM
same,TGI,MALME-3M melanoma,> 100 µM
same,TGI,MCF7 breast,> 100 µM
same,TGI,MDA-MB-231 breast,> 100 µM
same,TGI,MDA-MB-435,> 100 µM
same,TGI,MDA-N,> 100 µM
same,TGI,MOLT-4 leukemia,> 100 µM
same,TGI,NCI-H226 lung,> 100 µM
same,TGI,NCI-H23 lung,> 100 µM
same,TGI,NCI-H460 lung,> 100 µM
same,TGI,NCI/ADR-RES ovarian,> 100 µM
same,TGI,OVCAR-3 ovarian,> 100 µM
same,TGI,OVCAR-4 ovarian,> 100 µM
same,TGI,OVCAR-5 ovarian,> 100 µM
same,TGI,OVCAR-8 ovarian,> 100 µM
same,TGI,PC-3 prostate,> 100 µM
same,TGI,RPMI-8226 leukemia,> 100 µM
same,TGI,RXF 393 renal,> 100 µM
same,TGI,SF-268 CNS,> 100 µM
same,TGI,SF-295 CNS,> 100 µM
same,TGI,SF-539 CNS,> 100 µM
same,TGI,SK-MEL-2 melanoma,> 100 µM
same,TGI,SK-MEL-28 melanoma,> 100 µM
same,TGI,SK-OV-3 ovarian,> 100 µM
same,TGI,SN12C renal,> 100 µM
same,TGI,SNB-19 CNS,> 100 µM
same,TGI,SNB-75 CNS,> 100 µM
same,TGI,SW-620 colon,> 100 µM
same,TGI,T-47D breast,> 100 µM
same,TGI,U251 CNS,> 100 µM
same,TGI,UACC-257 melanoma,> 100 µM
same,TGI,UACC-62 melanoma,> 100 µM
same,TGI,UO-31 renal,> 100 µM
CC1(C)CN=C(Nc2ccc(F)c(Cl)c2)S1,TGI,786-0 renal,> 100 µM
same,TGI,A549 NSCLC,> 100 µM
same,TGI,ACHN renal,> 100 µM
same,TGI,BT-549 breast,> 100 µM
same,TGI,CAKI-1 renal,> 100 µM
same,TGI,CCRF-CEM leukemia,> 100 µM
same,TGI,COLO 205 colon,> 100 µM
same,TGI,DU-145 prostate,> 100 µM
same,TGI,EKVX NSCLC,> 100 µM
same,TGI,HCC-2998 colon,> 100 µM
same,TGI,HCT-116 colon,> 100 µM
same,TGI,HCT-15 colon,> 100 µM
same,TGI,HL-60(TB) leukemia,> 100 µM
same,TGI,HOP-62 NSCLC,> 100 µM
same,TGI,HOP-92 NSCLC,> 100 µM
same,TGI,HS 578T breast,> 100 µM
same,TGI,HT29 colon,> 100 µM
same,TGI,IGROV1 ovarian,> 100 µM
same,TGI,K-562 leukemia,> 100 µM
same,TGI,KM12 colon,> 100 µM
same,TGI,LOX IMVI melanoma,> 100 µM
same,TGI,M14 melanoma,> 100 µM
same,TGI,MALME-3M melanoma,> 100 µM
same,TGI,MCF7 breast,> 100 µM
same,TGI,MDA-MB-435,> 100 µM
same,TGI,MDA-N,> 100 µM
same,TGI,MOLT-4 leukemia,> 100 µM
same,TGI,NCI-H226 lung,> 100 µM
same,TGI,NCI-H23 lung,> 100 µM
same,TGI,NCI-H522 lung,> 100 µM
same,TGI,NCI/ADR-RES ovarian,> 100 µM
same,TGI,OVCAR-3 ovarian,> 100 µM
same,TGI,OVCAR-4 ovarian,> 100 µM
same,TGI,OVCAR-5 ovarian,> 100 µM
same,TGI,OVCAR-8 ovarian,> 100 µM
same,TGI,PC-3 prostate,> 100 µM
same,TGI,RPMI-8226 leukemia,> 100 µM
same,TGI,RXF 393 renal,> 100 µM
same,TGI,SF-268 CNS,> 100 µM
same,TGI,SF-295 CNS,> 100 µM
same,TGI,SF-539 CNS,> 100 µM
same,TGI,SK-MEL-2 melanoma,> 100 µM
same,TGI,SK-MEL-28 melanoma,> 100 µM
same,TGI,SK-MEL-5 melanoma,> 100 µM
same,TGI,SK-OV-3 ovarian,> 100 µM
same,TGI,SN12C renal,> 100 µM
same,TGI,SNB-19 CNS,> 100 µM
same,TGI,SNB-75 CNS,> 100 µM
same,TGI,SR leukemia,> 100 µM
same,TGI,SW-620 colon,> 100 µM
same,TGI,T-47D breast,> 100 µM
same,TGI,TK-10 renal,> 100 µM
same,TGI,U251 CNS,> 100 µM
same,TGI,UACC-257 melanoma,> 100 µM
same,TGI,UACC-62 melanoma,> 100 µM
same,TGI,UO-31 renal,> 100 µM
CO/N=C(\C(=O)[N-][n+]1cnn(CC(=O)O)c1)c1csc(N)n1,TGI,786-0 renal,> 10 µM
same,TGI,A549 NSCLC,> 10 µM
same,TGI,ACHN renal,> 10 µM
same,TGI,BT-549 breast,> 10 µM
same,TGI,CAKI-1 renal,> 10 µM
same,TGI,CCRF-CEM leukemia,> 10 µM
same,TGI,COLO 205 colon,> 10 µM
same,TGI,DU-145 prostate,> 10 µM
same,TGI,EKVX NSCLC,> 10 µM
same,TGI,HCC-2998 colon,> 10 µM
same,TGI,HCT-116 colon,> 10 µM
same,TGI,HCT-15 colon,> 10 µM
same,TGI,HL-60(TB) leukemia,> 10 µM
same,TGI,HOP-62 NSCLC,> 10 µM
same,TGI,HOP-92 NSCLC,> 10 µM
same,TGI,HT29 colon,> 10 µM
same,TGI,IGROV1 ovarian,> 10 µM
same,TGI,K-562 leukemia,> 10 µM
same,TGI,KM12 colon,> 10 µM
same,TGI,LOX IMVI melanoma,> 10 µM
same,TGI,M14 melanoma,> 10 µM
same,TGI,MCF7 breast,> 10 µM
same,TGI,MDA-MB-231 breast,> 10 µM
same,TGI,MDA-N,> 10 µM
same,TGI,MOLT-4 leukemia,> 10 µM
same,TGI,NCI-H23 lung,> 10 µM
same,TGI,NCI-H460 lung,> 10 µM
same,TGI,OVCAR-4 ovarian,> 10 µM
same,TGI,OVCAR-8 ovarian,> 10 µM
same,TGI,RPMI-8226 leukemia,> 10 µM
same,TGI,SF-268 CNS,> 10 µM
same,TGI,SK-MEL-28 melanoma,> 10 µM
same,TGI,SK-MEL-5 melanoma,> 10 µM
same,TGI,SK-OV-3 ovarian,> 10 µM
same,TGI,SN12C renal,> 10 µM
same,TGI,SNB-75 CNS,> 10 µM
same,TGI,SR leukemia,> 10 µM
same,TGI,SW-620 colon,> 10 µM
same,TGI,T-47D breast,> 10 µM
same,TGI,TK-10 renal,> 10 µM
same,TGI,UACC-257 melanoma,> 10 µM
same,TGI,UACC-62 melanoma,> 10 µM
O=C1CN(c2ccccc2)C(=O)CN1CCN1CC(=O)N(c2ccccc2)CC1=O,TGI,786-0 renal,> 100 µM
same,TGI,A498 renal,> 100 µM
same,TGI,A549 NSCLC,> 100 µM
same,TGI,ACHN renal,> 100 µM
same,TGI,BT-549 breast,> 100 µM
same,TGI,CAKI-1 renal,> 100 µM
same,TGI,COLO 205 colon,> 100 µM
same,TGI,DU-145 prostate,> 100 µM
same,TGI,EKVX NSCLC,> 100 µM
same,TGI,HCC-2998 colon,> 100 µM
same,TGI,HCT-116 colon,> 100 µM
same,TGI,HCT-15 colon,> 100 µM
same,TGI,HL-60(TB) leukemia,> 100 µM
same,TGI,HOP-62 NSCLC,> 100 µM
same,TGI,HOP-92 NSCLC,> 100 µM
same,TGI,HS 578T breast,> 100 µM
same,TGI,HT29 colon,> 100 µM
same,TGI,IGROV1 ovarian,> 100 µM
same,TGI,KM12 colon,> 100 µM
same,TGI,M14 melanoma,> 100 µM
same,TGI,MALME-3M melanoma,> 100 µM
same,TGI,MCF7 breast,> 100 µM
same,TGI,MDA-MB-435,> 100 µM
same,TGI,MDA-N,> 100 µM
same,TGI,NCI-H23 lung,> 100 µM
same,TGI,NCI-H460 lung,> 100 µM
same,TGI,NCI-H522 lung,> 100 µM
same,TGI,OVCAR-3 ovarian,> 100 µM
same,TGI,OVCAR-4 ovarian,> 100 µM
same,TGI,OVCAR-5 ovarian,> 100 µM
same,TGI,OVCAR-8 ovarian,> 100 µM
same,TGI,PC-3 prostate,> 100 µM
same,TGI,RPMI-8226 leukemia,> 100 µM
same,TGI,RXF 393 renal,> 100 µM
same,TGI,SF-268 CNS,> 100 µM
same,TGI,SF-295 CNS,> 100 µM
same,TGI,SF-539 CNS,> 100 µM
same,TGI,SK-MEL-28 melanoma,> 100 µM
same,TGI,SK-MEL-5 melanoma,> 100 µM
same,TGI,SK-OV-3 ovarian,> 100 µM
same,TGI,SN12C renal,> 100 µM
same,TGI,SNB-19 CNS,> 100 µM
same,TGI,SNB-75 CNS,> 100 µM
same,TGI,SR leukemia,> 100 µM
same,TGI,SW-620 colon,> 100 µM
same,TGI,TK-10 renal,> 100 µM
same,TGI,U251 CNS,> 100 µM
same,TGI,UACC-257 melanoma,> 100 µM
same,TGI,UACC-62 melanoma,> 100 µM
same,TGI,UO-31 renal,> 100 µM
